This note sets out measurements from US8293768B2, “Organic compounds” (Novartis AG, priority 2006, dated 2012).

The structures appear in SMILES notation.

`Cc1nc(N2CCN(CC3CCC3)C2=O)sc1C(=O)NCc1cccnc1` [Example 9.37, 2-(3-(cyclobutylmethyl)-2-oxoimidazolidin-1-yl)-4-methyl-N-(pyridin-3-ylmethyl)thiazole-5-carboxamide] displayed a melting point of 136 to 137 °C.

`Cc1nc(N2CCN(CC3CCCC3)C2=O)sc1C(=O)NCc1cccnc1` [Example 9.38, 2-(3-(cyclopentylmethyl)-2-oxoimidazolidin-1-yl)-4-methyl-N-(pyridin-3-ylmethyl)thiazole-5-carboxamide] yielded a melting point of 142 to 143 °C.

`CCCN1CCN(c2nc(C)c(C(=O)NCc3cccnc3)s2)C1=O` [Example 9.40, 4-methyl-2-(2-oxo-3-propylimidazolidin-1-yl)-N-(pyridin-3-ylmethyl)thiazole-5-carboxamide] registered a melting point of 109 to 111 °C.

Take `CCCCCN1CCN(c2nc(C)c(C(=O)NCc3cccnc3)s2)C1=O` [Example 9.42, 4-methyl-2-(2-oxo-3-pentylimidazolidin-1-yl)-N-(pyridin-3-ylmethyl)thiazole-5-carboxamide]: the melting point was 102 to 103 °C.

Take `Cc1nc(N2CCN(Cc3cccc(C(F)(F)F)c3)C2=O)sc1C(=O)NCc1cccnc1` [Example 9.43, 4-methyl-2-(2-oxo-3-(3-(trifluoromethyl)benzyl)imidazolidin-1-yl)-N-(pyridin-3-ylmethyl)thiazole-5-carboxamide]: the melting point was 175 to 176 °C.

For `Cc1nc(N2CCN(Cc3ccc(F)cc3)C2=O)sc1C(=O)NCc1ccc(C(F)F)o1` [Example 9.44, N-((5-(difluoromethyl)furan-2-yl)methyl)-2-(3-(4-fluorobenzyl)-2-oxoimidazolidin-1-yl)-4-methylthiazole-5-carboxamide], the melting point was 173 to 174 °C.

`Cc1nc(N2CCN(Cc3ccc(C(F)F)o3)C2=O)sc1C(=O)NCc1cccnc1` [Example 9.45, 2-(3-((5-(difluoromethyl)furan-2-yl)methyl)-2-oxoimidazolidin-1-yl)-4-methyl-N-(pyridin-3-ylmethyl)thiazole-5-carboxamide] yielded a melting point of 142 to 143 °C.

For the molecule `CCOC(=O)c1sc(N2CCN(Cc3ccc(Cl)cc3)C2=O)nc1C` [Example 10.3, ethyl 2-(3-(4-chlorobenzyl)-2-oxoimidazolidin-1-yl)-4-methylthiazole-5-carboxylate], the melting point lay within 117 to 119 °C.

`CCOC(=O)c1sc(N2C[C@@H](Cc3ccccc3)NC2=O)nc1C` [Example 11, (R)-ethyl 2-(4-benzyl-2-oxoimidazolidin-1-yl)-4-methylthiazole-5-carboxylate] came in with a melting point of 102 to 103 °C.

Consider `Cc1cc(N2CCN(Cc3ccc(C(F)(F)F)cc3)C2=O)sc1C(=O)NCc1cccnc1` [Example 15, 3-methyl-5-(2-oxo-3-(4-(trifluoromethyl)benzyl)imidazolidin-1-yl)-N-(pyridin-3-ylmethyl)thiophene-2-carboxamide], for which the melting point lay within 102 to 104 °C.

As to `Cc1cc(N2CCN(Cc3ccccc3)C2=O)sc1C(=O)NCc1cccnc1` [Example 15.1, 5-(3-benzyl-2-oxoimidazolidin-1-yl)-3-methyl-N-(pyridin-3-ylmethyl)thiophene-2-carboxamide], the melting point fell in the range of 130 to 131 °C.

`Cc1cc(N2CCN(Cc3ccc(F)cc3)C2=O)sc1C(=O)NCc1cccnc1` [Example 15.2, 5-(3-(4-fluorobenzyl)-2-oxoimidazolidin-1-yl)-3-methyl-N-(pyridin-3-ylmethyl)thiophene-2-carboxamide] yielded a melting point of 119 to 120 °C.

On to `Cc1cc(N2CCN(CC3CC3)C2=O)sc1C(=O)NCc1cccnc1` [Example 15.3, 5-(3-(cyclopropylmethyl)-2-oxoimidazolidin-1-yl)-3-methyl-N-(pyridin-3-ylmethyl)thiophene-2-carboxamide], for which the melting point is 157 to 159 °C.

In turn, `Cc1cc(N2CCN(CCc3ccccc3)C2=O)sc1C(=O)NCc1cccnc1` [Example 15.4, 3-methyl-5-(2-oxo-3-phenethylimidazolidin-1-yl)-N-(pyridin-3-ylmethyl)thiophene-2-carboxamide] yielded a melting point of 95 to 97 °C.

Consider `Cc1nc(N2CCN(CC(=O)NCc3ccc(F)cc3)C2=O)sc1C(=O)NCc1ccccc1` [Example 15.5, N-benzyl-2-(3-(2-(4-fluorobenzylamino)-2-oxoethyl)-2-oxoimidazolidin-1-yl)-4-methylthiazole-5-carboxamide], for which the melting point was 232 to 234 °C.

With `Cc1nc(N2C(=O)N(Cc3ccc(F)cc3)CC2O)sc1C(=O)NCc1ccccc1` (stereo not drawn) [Example 16, N-benzyl-2-(3-(4-fluorobenzyl)-5-hydroxy-2-oxoimidazolidin-1-yl)-4-methylthiazole-5-carboxamide], the melting point is 133 to 134 °C.

`Cc1nc(N2C(=O)N(CCc3ccc(F)cc3)CC2O)sc1C(=O)NCc1cccnc1` (stereo not drawn) [Example 16.1, 2-(3-(4-fluorophenethyl)-5-hydroxy-2-oxoimidazolidin-1-yl)-4-methyl-N-(pyridin-3-ylmethyl)thiazole-5-carboxamide] had a melting point of 182 to 184 °C.

Regarding `Cc1nc(N2C(=O)N(Cc3ccc(F)cc3)CC2O)sc1C(=O)NCc1cccnc1` (stereo not drawn) [Example 16.2, 2-(3-(4-fluorobenzyl)-5-hydroxy-2-oxoimidazolidin-1-yl)-4-methyl-N-(pyridin-3-ylmethyl)thiazole-5-carboxamide], the melting point fell in the range of 64 to 66 °C.

Regarding `Cc1nc(N2C(=O)N(Cc3ccc(C(F)(F)F)cc3)CC2O)sc1C(=O)NCc1cccnc1` (stereo not drawn) [Example 16.3, 2-(5-hydroxy-2-oxo-3-(4-(trifluoromethyl)benzyl)imidazolidin-1-yl)-4-methyl-N-(pyridin-3-ylmethyl)thiazole-5-carboxamide], the melting point was in the range of 171 to 172 °C.

Regarding `Cc1nc(-n2ccn(Cc3ccc(F)cc3)c2=O)sc1C(=O)NCc1ccccc1` [Example 17, N-benzyl-2-(3-(4-fluorobenzyl)-2-oxo-2,3-dihydro-1H-imidazol-1-yl)-4-methylthiazole-5-carboxamide], the melting point was 167 to 168 °C.

The molecule `Cc1nc(-n2ccn(CCc3ccc(F)cc3)c2=O)sc1C(=O)NCc1cccnc1` [Example 17.1, 2-(3-(4-fluorophenethyl)-2-oxo-2,3-dihydro-1H-imidazol-1-yl)-4-methyl-N-(pyridin-3-ylmethyl)thiazole-5-carboxamide] showed a melting point of 160 to 162 °C.

Take `Cc1nc(-n2ccn(Cc3ccc(F)cc3)c2=O)sc1C(=O)NCc1cccnc1` [Example 17.2, 2-(3-(4-fluorobenzyl)-2-oxo-2,3-dihydro-1H-imidazol-1-yl)-4-methyl-N-(pyridin-3-ylmethyl)thiazole-5-carboxamide]: the melting point is 158 to 159 °C.

Turning to `Cc1nc(-n2cnn(Cc3c(C)noc3C)c2=O)sc1C(=O)NCc1cccnc1` [Example 19.7, 2-(1-((3,5-dimethylisoxazol-4-yl)methyl)-5-oxo-1H-1,2,4-triazol-4(5H)-yl)-4-methyl-N-(pyridin-3-ylmethyl)thiazole-5-carboxamide], the melting point fell in the range of 233 to 234 °C.

`Cc1nc(-n2cnn(CCO)c2=O)sc1C(=O)NCc1cccnc1` [Example 19.9, 2-(1-(2-hydroxyethyl)-5-oxo-1H-1,2,4-triazol-4(5H)-yl)-4-methyl-N-(pyridin-3-ylmethyl)thiazole-5-carboxamide] returned a melting point of 201 to 202 °C.

As for `Cc1nc(-n2cnn(Cc3ccc(C(F)(F)F)cc3)c2=O)sc1C(=O)NCc1cccnc1` [Example 21, 4-methyl-2-(5-oxo-1-(4-(trifluoromethyl)benzyl)-1H-1,2,4-triazol-4(5H)-yl)-N-(pyridin-3-ylmethyl)thiazole-5-carboxamide], the melting point lay within 156 to 158 °C.

As to `Cc1nc(-n2cnn(Cc3ccc(OC(F)F)cc3)c2=O)sc1C(=O)NCc1cccnc1` [Example 21.1, 2-(1-(4-(difluoromethoxy)benzyl)-5-oxo-1H-1,2,4-triazol-4(5H)-yl)-4-methyl-N-(pyridin-3-ylmethyl)thiazole-5-carboxamide], the melting point fell in the range of 151 to 152 °C.

With `Cc1nc(-n2cnn(CCOc3ccc(F)cc3)c2=O)sc1C(=O)NCc1cccnc1` [Example 21.2, 2-(1-(2-(4-fluorophenoxy)ethyl)-5-oxo-1H-1,2,4-triazol-4(5H)-yl)-4-methyl-N-(pyridin-3-ylmethyl)thiazole-5-carboxamide], the melting point lay in the range of 154 to 155 °C.

As for `Cc1nc(-n2cnn(Cc3ccc(F)cc3)c2=O)sc1C(=O)NCc1cccnc1` [Example 21.3, 2-(1-(4-fluorobenzyl)-5-oxo-1H-1,2,4-triazol-4(5H)-yl)-4-methyl-N-(pyridin-3-ylmethyl)thiazole-5-carboxamide], the melting point lay within 178 to 179 °C.

The molecule `Cc1nc(-n2cnn(CC3CC3)c2=O)sc1C(=O)NCc1cccnc1` [Example 21.4, 2-(1-(cyclopropylmethyl)-5-oxo-1H-1,2,4-triazol-4(5H)-yl)-4-methyl-N-(pyridin-3-ylmethyl)thiazole-5-carboxamide] displayed a melting point of 116 to 117 °C.

On to `Cc1nc(-n2cnn(Cc3ccc(C(F)(F)F)o3)c2=O)sc1C(=O)NCc1cccnc1` [Example 21.6, 4-methyl-2-(5-oxo-1-((5-(trifluoromethyl)furan-2-yl)methyl)-1H-1,2,4-triazol-4(5H)-yl)-N-(pyridin-3-ylmethyl)thiazole-5-carboxamide], for which the melting point is 124 to 125 °C.

As for `Cc1nc(-n2cn[nH]c2=O)sc1C(=O)NCc1cccnc1` [Example 21.7, 4-methyl-2-(5-oxo-1H-1,2,4-triazol-4(5H)-yl)-N-(pyridin-3-ylmethyl)thiazole-5-carboxamide], the melting point was in the range of 278 to 279 °C.

With `Cc1nc(-n2cnn(Cc3ccc(F)cc3)c2=O)sc1C(=O)NCc1ncco1` [Example 21.8, 2-(1-(4-fluorobenzyl)-5-oxo-1H-1,2,4-triazol-4(5H)-yl)-4-methyl-N-(oxazol-2-ylmethyl)thiazole-5-carboxamide], the melting point lay in the range of 152 to 153 °C.

`Cc1nc(-n2cnn(Cc3ccc(F)cc3)c2=O)sc1C(=O)NCc1cc[nH]n1` [Example 21.9, N-((1H-pyrazol-3-yl)methyl)-2-(1-(4-fluorobenzyl)-5-oxo-1H-1,2,4-triazol-4(5H)-yl)-4-methylthiazole-5-carboxamide] came in with a melting point of 178 to 179 °C.

The melting point is the temperature, or range, at which the solid turns liquid.
